Laboratory results: publication PMC6457190, “Tridecaptin-inspired antimicrobial peptides with activity against multidrug-resistant Gram-negative bacteria” (MedChemComm, 2019)
Where a SMILES comes first, the peptide text is derived from it. [ ]: non-standard residue; d: D form. The star is where a group is joined. dOrn = NCCC[C@@H](N)C(=O)O; Octanoyl = CCCCCCCC(=O)*; Orn = NCCC[C@H](N)C(=O)O

Legend:
Equine erythrocytes = type: cell-based, horse; conditions: red cells of equine, 100 μg mL^–1
Method: Having assessed the antimicrobial activity of peptides 1–8 we next proceeded to assess their haemolytic activities (Table 2). Haemolytic activity was tested at 100 μg mL^–1, as the concentration required for haemolysis should be higher than antimicrobial MICs. Equine erythrocytes were exposed to peptides 1–8 and incubated for 30 min at 37 °C (Table 2). […] The low haemolytic activity observed for Oct-TriA2 (2,8-D-Lys, 7-Lys) (8) is consistent with its poor antimicrobial activity. […]
VI. Haemolytic activity assays
A 96-well plate was first prepared to contain phosphate-buffered saline (PBS) solutions (100 μL) of tridecaptin analogues 1 – 8 (200 μg/mL) (experiments run in triplicate). 0.1 % Triton X-100 (100 μL) was used as a positive control, while PBS (100 μL) was used as a blank. After the plate had been prepared, defibrinated horse blood (0.5 mL, VWR International) was diluted with phosphate-buffered saline (9.5 mL) and gently shaken. The resulting mixture was centrifuged (5600 rpm, 5 min) using a Thermo Scientific Heraeus Labofuge 200 centrifuge and the supernatant carefully removed. This process was repeated three more times to remove any free hemoglobin. The resulting erythrocyte pellet was gently resuspended in 9.5 mL of PBS. Aliquots of the resulting mixture (100 μL) were added to the appropriate wells on the 96-well plate using a multichannel pipette and the plate incubated at 37 °C for 30 min. The samples were gently mixed by pipetting, and 20 μL of each was added to 200 μL of PBS. Once again, the samples were gently mixed. The diluted samples were then centrifuged (7000 rpm, 5 min) using a SciSpin MINI Microfuge. Supernatant (150 μL) from each sample was added to a new 96-well plate. The absorbance of each sample was individually measured at 415 nm using a Denovix DS-11 FX+ Spectrophotometer. Percent hemolysis of the peptides was calculated relative to Triton X- 100, while the PBS negative control was used as a blank.

[1] = system: K. pneumoniae and E. cloacae strains; type: cell-based, Klebsiella pneumoniae, Enterobacter cloacae; conditions: 18 h
Method: The first amino acid substitution we explored was replacement of D-allo-Ile12 with D-Val, which occurs in natural TriA2 variants. Fmoc-D-Val is ∼30 times less expensive than Fmoc-D-allo-Ile (according to Fluorochem pricing). […] The minimum inhibitory concentrations (MICs) of Oct-TriA1 against K. pneumoniae and E. cloacae strains were typically 6.25 μg mL^–1 but […] against carbapenemase-producing A. baumannii strains (25 μg mL^–1).
(§1) MilliQ water and solvent B = 0.1 % TFA in ACN. A gradient method was employed, starting from 20 % B and 80 % A for 2 min, ramping up to 95 % B over 18 min, ramping down to 20 % B over 0.1 min before staying at 20 % B for 3.9 min. High resolution mass spectrometry (HRMS) spectra of all peptides were recorded by Analytical Services and Environmental Projects (ASEP) at Queen’s University Belfast on a Waters LCT Premier ToF mass spectrometer using the electrospray ionisation (ESI) technique.
(§2) IV. Antimicrobial testing
All minimum inhibitory concentrations (MICs) were determined according to Clinical and Standards Laboratory Institute (CLSI) guidelines. Briefly, peptides were dissolved in Muller-Hinton Broth (MHB) and serial dilutions made across a 96 well plate. Each well was inoculated with a suspension of the required bacterial strain to reach a final inoculum of 5 x 10^5 colony forming units per mL. […]

A. baumannii ACM 11 = type: cell-based, Acinetobacter baumannii; conditions: ACM 11, 18 h
Method: as §2
(§3) All minimum inhibitory concentrations (MICs) were determined according to Clinical and Standards Laboratory Institute (CLSI) guidelines. Briefly, peptides were dissolved in Muller-Hinton Broth (MHB) and serial dilutions made across a 96 well plate. Each well was inoculated with a suspension of the required bacterial strain to reach a final inoculum of 5 x 10^5 colony forming units per mL. The MIC was taken as the lowest concentration with no visible growth after 18 hours.
(§4) V. Additional information on multidrug resistant strains
(§5) Organism Resistant Susceptible
(§6) Acinetobacter baumannii ACM 11 Ceftazimide

K. pneumoniae IMP 204 = type: cell-based, Klebsiella pneumoniae; conditions: IMP 204, 18 h
Method: as §2, §3

K. pneumoniae IMP 485 = type: cell-based, Klebsiella pneumoniae; conditions: IMP 485, 18 h
Method: as §2, §3

K. pneumoniae IMP 177 = type: cell-based, Klebsiella pneumoniae; conditions: IMP 177, 18 h
Method: as §2, §3

K. pneumoniae IMP 170 = type: cell-based, Klebsiella pneumoniae; conditions: IMP 170, 18 h
Method: as §2, §3

K. pneumoniae = type: cell-based, Klebsiella pneumoniae; conditions: 18 h
Method: as §2, §3

K. pneumoniae IMP 216 = type: cell-based, Klebsiella pneumoniae; conditions: IMP 216, 18 h
Method: as §2, §3

A. baumannii ACM 29 = type: cell-based, Acinetobacter baumannii; conditions: ACM 29, 18 h
Method: as §2, §3
V. Additional information on multidrug resistant strains […]
Organism Resistant Susceptible […]
(§7) Acinetobacter baumannii ACM 29 Ceftazimide
(§8) Isolated from peritoneum of 3-year- Imipenem

P. pseudoalcaligenes = type: cell-based, Pseudomonas pseudoalcaligenes; conditions: 18 h
Method: as §2, §3

E. cloacae = type: cell-based, Enterobacter cloacae; conditions: 18 h
Method: as §2, §3

A. baumannii = type: cell-based, Acinetobacter baumannii; conditions: 18 h
Method: as §2, §3, §4, §5
Acinetobacter baumannii Cefotaxime Imipenem
Isolated from sewage contaminated Tetracycline Colistin water (Tripoli, Lebanon). Ofloxacin Tobramycin
as §6, §7, §8

A. baumannii strains = test: MIC; type: cell-based, Acinetobacter baumannii; conditions: against the A. baumannii strains
Description: (§9) We next proceeded to replace the D-Dab and L-Dab residues, found at positions 2 and 8, and 7 respectively. […] It was previously shown that D-Dab8 is essential for antimicrobial activity,[18] and an experimentally derived model of Oct-TriA1 bound to its cellular receptor, the peptidoglycan intermediate lipid II, supports this observation.[12] Therefore we first prepared peptides in which only the amino acids at positions 2 and 7 were substituted with Lys or Orn (D/L configuration retained). […] Finally, the Lys/Orn substitutions at the 2, 7 and 8 positions were also incorporated into TriA2 analogues, yielding Oct-TriA2 (2,8-D-Orn, 7-Orn) (7) and Oct-TriA2 (2,8-D-Lys, 7-Lys) (8).
as §1, §2
(§10) All minimum inhibitory concentrations (MICs) were determined according to Clinical and Standards Laboratory Institute (CLSI) guidelines. […]

K. pneumoniae strains = test: MIC; type: cell-based, Klebsiella pneumoniae; conditions: against the K. pneumoniae strains
Description: as §9, §1, §2, §10

Compound | % haemolysis (Equine erythrocytes) [%] | minimum inhibitory concentrations (MICs), typical value [1] [μg mL^–1] | Peptide MIC (A. baumannii ACM 11) [μg mL^–1] | Peptide MIC (K. pneumoniae IMP 204) [μg mL^–1] | Peptide MIC (K. pneumoniae IMP 485) [μg mL^–1] | Peptide MIC (K. pneumoniae IMP 177) [μg mL^–1] | Peptide MIC (K. pneumoniae IMP 170) [μg mL^–1] | Peptide MIC (K. pneumoniae) [μg mL^–1] | Peptide MIC (K. pneumoniae IMP 216) [μg mL^–1] | Peptide MIC (A. baumannii ACM 29) [μg mL^–1] | Peptide MIC (P. pseudoalcaligenes) [μg mL^–1] | Peptide MIC (E. cloacae) [μg mL^–1] | Peptide MIC (A. baumannii) [μg mL^–1] | antimicrobial activity relative to Oct-TriA1 (A. baumannii strains) | antimicrobial activity relative to Oct-TriA1 (K. pneumoniae strains)
CCCCCCCC(=O)N[C@@H](C(=O)N[C@H](CCN)C(=O)NCC(=O)N[C@H](CO)C(=O)N[C@H](Cc1c[nH]c2ccccc12)C(=O)N[C@@H](CO)C(=O)N[C@@H](CCN)C(=O)N[C@H](CCN)C(=O)N[C@@H](Cc1ccccc1)C(=O)N[C@@H](CCC(=O)O)C(=O)N[C@H](C(=O)N[C@@H](C(=O)N[C@@H](C)C(=O)O)[C@@H](C)CC)C(C)C)C(C)C [Peptide 1, Oct-TriA1, reference compound] | 89.6 | ~6.25 | 25 | 12.5 | 6.25 | 6.25 | 6.25 | 6.25 | 6.25 | 25 | 50 | 3.13 | 12.5 |  | 
CCCCCCCC(=O)N[C@@H](C(=O)N[C@H](CCCN)C(=O)NCC(=O)N[C@H](CO)C(=O)N[C@H](Cc1c[nH]c2ccccc12)C(=O)N[C@@H](CO)C(=O)N[C@@H](CCCN)C(=O)N[C@H](CCCN)C(=O)N[C@@H](Cc1ccccc1)C(=O)N[C@@H](CCC(=O)O)C(=O)N[C@H](C(=O)N[C@@H](C(=O)N[C@@H](C)C(=O)O)C(C)C)C(C)C)C(C)C [Peptide 7, Oct-TriA2 (2,8-D-Orn, 7-Orn)] (Octanoyl-[dV][dOrn]G[dS][dW]S[Orn][dOrn]FEV[dV]A-OH) | 39.8 |  | 25 | 12.5 | 12.5 | 12.5 | 25 | 50 | 12.5 | 50 | 6.25 | 12.5 | 25 | comparable activity | two- to four-fold less active
